Target: T1, R87D THIK-1 single channels (Homo sapiens, UniProt Q9HB14, R87D)
T1 construct: expressed in transfected cells; host or cells: Xenopus oocytes (mRNA injection)
Assay: Single-channel excised patch recordings of R87D THIK-1 at -100 mV with halothane
Assay type: cell-based
Method: Two-electrode voltage–clamp (TEVC) studies were performed in Xenopus oocytes. All animal use conformed to the Guide for the Care and Use of Laboratory Animals (NIH Publication 85–23), and all experiments using Xenopus toads were approved by the local ethics panels. Oocytes were stored at 17 °C in ND96 recording solution composed of (in mM): 96 NaCl, 2 KCl, 1.8 CaCl2, 1 MgCl2, 5 HEPES (pH 7.5 adjusted with NaOH and HCl), supplemented with Na-pyruvate (275 mg L^–1), theophylline (90 mg L^–1) and gentamicin (50 mg L^–1). Oocytes were injected with 1 ng mRNA for WT or mutant channels, and were incubated for 24–48 h at 17 °C. Two-electrode voltage clamp recordings were then performed as previously described[42],[43]. […] Currents were recorded with an EPC10 amplifier (HEKA Electronics) and sampled at 10 kHz or higher, with filtering set to 3 kHz (–3 dB) or higher, as appropriate for sampling rate. For measurements of GPCR activation, whole-cell currents were recorded for THIK-1 in transiently transfected HEK-293 cells. […] Single-channel currents were recorded with an Axopatch 200B amplifier through a Digidata 1440A digitizer (Molecular Devices). Data were filtered at 2 kHz and recorded at a 200-kHz sampling rate with the program Clampex (Molecular Devices). […]

T1 sequence (Q9HB14 whole entry R87D): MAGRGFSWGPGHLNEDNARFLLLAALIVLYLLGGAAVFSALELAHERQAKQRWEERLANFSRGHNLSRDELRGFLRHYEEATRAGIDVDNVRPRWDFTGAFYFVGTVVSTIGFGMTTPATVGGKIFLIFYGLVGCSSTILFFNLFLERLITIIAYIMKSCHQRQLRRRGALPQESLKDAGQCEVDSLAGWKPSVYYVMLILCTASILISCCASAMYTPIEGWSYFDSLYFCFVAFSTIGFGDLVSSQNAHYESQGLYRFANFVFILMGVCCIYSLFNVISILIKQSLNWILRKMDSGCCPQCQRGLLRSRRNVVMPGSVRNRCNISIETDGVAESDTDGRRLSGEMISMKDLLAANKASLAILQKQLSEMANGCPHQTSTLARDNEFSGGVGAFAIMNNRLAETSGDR

decrease in activity (0.4% halothane): 30%
decrease in activity (1% halothane): 75%
Compound: FC(F)(F)C(Cl)Br (centres unmarked) [halothane]
